Series [1] is described as follows: Partition coefficient of the compound was evaluated. The format is physicochemical. The following applies: octanol/water.
The subject of series [2] is MT4. Description: Compound was evaluated for the inhibition of the spread of HIV-1 IIIb infection in MT-4 human T-lymphoid cells; value ranges from […]-[…] nM. The format is functional. The following applies: read-out: CIC95.
The nature of series [3]: Compound was evaluated for the solubility at pH value of 7.4. To be noted: pH 7.4. It is filed as physicochemical.
Series [4] can be described thus: Compound was evaluated for maximum plasma concentration levels in dogs at 10 mg/kg (in 0.05M citric acid solution) po. The following applies: dog.
The target of series [5] is Human immunodeficiency virus type 1 protease (Human immunodeficiency virus 1, UniProt Q72874). The series can be described thus: Evaluated for the inhibition of HIV protease.
For series [6], the target named is Human immunodeficiency virus type 1 protease (Human immunodeficiency virus 1) (UniProt Q72874). Description: Inhibition of the spread of HIV-1 IIIb infection in MT-4 human T-lymphoid cells. The format is functional, cell-based.
The test system of series [7] is MT4. The series can be described thus: Compound was evaluated for the inhibition of the spread of HIV-1 IIIb infection in MT-4 human T-lymphoid cells; value ranges from 25-100 nM. The format is functional. The following applies: read-out: CIC95.
Series [8] deals with MT4. The series can be described thus: Compound was evaluated for the inhibition of the spread of HIV-1 IIIb infection in MT-4 human T-lymphoid cells; value ranges from 25-50 nM. The following applies: read-out: CIC95. The format is functional.
Series [9] concerns MT4. Description: Compound was evaluated for the inhibition of the spread of HIV-1 IIIb infection in MT-4 human T-lymphoid cells; value ranges from 50-100 nM. It is filed as functional. The following applies: read-out: CIC95.

In general, logP refers to the decadic logarithm of the partition coefficient of the neutral form, usually between octanol and water. A higher logP goes with a more lipophilic compound. A word on the solubility: it is the dissolved amount per volume that the medium holds. A lower solubility goes with little dissolved substance. A word on the Cmax: it is the peak of the concentration-time curve. Broadly, the IC50 is the midpoint of a concentration-inhibition curve. The low end stands for greater potency in that assay, the high end for weaker potency in that assay. `CC(C)(C)NC(=O)[C@@H]1CN(S(=O)(=O)c2cccc3cccnc23)CCN1C[C@@H](O)C[C@@H](Cc1ccccc1)C(=O)N[C@@H]1c2ccccc2C[C@H]1O` yielded a logP in [1] of 3.7. The IC95 with MT4 [2] was determined as 12.5 nM. Moreover, the solubility in [3] was under 1 µg/mL. The Cmax in [4] is under 100 nM. The same molecule displayed an IC50 in [5] of 0.013 nM.
Regarding `CC(C)(C)NC(=O)[C@@H]1CN(Cc2ccccc2)CCN1C[C@@H](O)C[C@@H](Cc1ccccc1)C(=O)N[C@@H]1c2ccccc2C[C@H]1O`, the IC95 in series [6] stood at 50 nM. This molecule also showed an IC50 in series [5] of 0.3 nM.
Molecule `CC(C)(C)NC(=O)[C@@H]1CN(Cc2cccnc2)CCN1C[C@@H](O)C[C@@H](Cc1ccccc1)C(=O)NC1c2ccccc2C[C@H]1O.O` (single isomer, unassigned) came in with a logP in [1] of 2.92. In addition, in the series with MT4 [7], the IC95 amounted to 25 nM. In series [4], this molecule came in with a Cmax of 11400 nM.
As to `CC(C)(C)NC(=O)[C@@H]1CN(CC(=O)OC(C)(C)C)CCN1C[C@@H](O)C[C@@H](Cc1ccccc1)C(=O)N[C@@H]1c2ccccc2C[C@H]1O`, in series [6], the IC95 worked out at 100 nM. Also, in [5], the IC50 stood at 0.81 nM.
The like results for `CCN1CCN(C[C@@H](O)C[C@@H](Cc2ccccc2)C(=O)N[C@@H]2c3ccccc3C[C@H]2O)[C@H](C(=O)NC(C)(C)C)C1` were, in that order, over 400 nM and 6.1 nM.
For `CC(C)(C)NC(=O)[C@@H]1CN(S(=O)(=O)c2cccnc2)CCN1C[C@@H](O)C[C@@H](Cc1ccccc1)C(=O)N[C@@H]1c2ccccc2C[C@H]1O`, in that order: 200 nM and 0.3 nM.
The like results for `CC(C)(C)NC(=O)[C@@H]1CN(CCOCc2ccccc2)CCN1C[C@@H](O)C[C@@H](Cc1ccccc1)C(=O)N[C@@H]1c2ccccc2C[C@H]1O` were, in that order, 100 nM and 1.03 nM.
Take `CC(C)(C)NC(=O)[C@@H]1CN(Cc2ccc(F)cc2F)CCN1C[C@@H](O)C[C@@H](Cc1ccccc1)C(=O)N[C@@H]1c2ccccc2C[C@H]1O`: the log partition coefficient (logP) in [1] turned out to be 3.69. Also, the IC95 with MT4 [8] came to 25 nM. The concentration in series [4] peaked (Cmax) at 730 nM. This molecule also gave an IC50 in [5] of 0.31 nM.
Molecule `CC(C)(C)NC(=O)[C@@H]1CCCCN1C[C@@H](O)C[C@@H](Cc1ccccc1)C(=O)N[C@@H]1c2ccccc2C[C@H]1O` yielded an IC50 in series [5] of 80 nM.
On to `CC(C)(C)NC(=O)[C@@H]1CC2CCCCC2CN1C[C@@H](O)C[C@@H](Cc1ccccc1)C(=O)N[C@@H]1c2ccccc2C[C@H]1O` (some centres undefined), for which the IC95 in series [6] amounted to 400 nM. Further, the IC50 in series [5] was determined as 7.8 nM.
For `CC(C)(C)NC(=O)[C@@H]1CN(Cc2ccncc2)CCN1C[C@@H](O)C[C@@H](Cc1ccccc1)C(=O)N[C@@H]1c2ccccc2C[C@H]1O`, the IC95 in the series on MT4 [9] was 50 nM. In [5], this molecule yielded an IC50 of 0.39 nM.
Regarding `CC(C)(C)NC(=O)[C@@H]1C[C@H](Oc2ccc3ccccc3c2)CN1C[C@@H](O)C[C@@H](Cc1ccccc1)C(=O)N[C@@H]1c2ccccc2C[C@H]1O`, the IC95 in series [6] was over 400 nM. Besides, inhibition in series [5] was half-maximal at 15 nM (IC50).
`Cc1nc(S(=O)(=O)N2CCN(C[C@@H](O)C[C@@H](Cc3ccccc3)C(=O)N[C@@H]3c4ccccc4C[C@H]3O)[C@H](C(=O)NC(C)(C)C)C2)c(C)s1` displayed an IC95 in series [6] of 200 nM. Besides, the IC50 in series [5] is 0.16 nM.
For `CC(C)(C)NC(=O)[C@@H]1CNCCN1C[C@@H](O)C[C@@H](Cc1ccccc1)C(=O)N[C@@H]1c2ccccc2C[C@H]1O`, in that order: 3000 nM and 38 nM.
On to `CC(C)(C)NC(=O)[C@@H]1CN(C(=O)OCc2ccccc2)CCN1C[C@@H](O)C[C@@H](Cc1ccccc1)C(=O)NC1c2ccccc2C[C@H]1O` (single isomer, unassigned), for which the IC95 in [6] came out at 100 nM. Also, the logP in series [1] is 4.67. The same molecule registered a solubility in series [3] of under 1 µg/mL. In addition, the Cmax in series [4] was under 100 nM. Also, in series [5], the IC50 is 0.36 nM.
In series [6], `CC(C)(C)NC(=O)[C@@H]1CCCN1C[C@@H](O)C[C@@H](Cc1ccccc1)C(=O)N[C@@H]1c2ccccc2C[C@H]1O` came in with an IC95 of 1500 nM. This molecule also came in with an IC50 in series [5] of 347 nM.
Turning to `CC(C)(C)NC(=O)[C@@H]1CN(C(=O)c2cc3ccccc3oc2=O)CCN1C[C@@H](O)C[C@@H](Cc1ccccc1)C(=O)N[C@@H]1c2ccccc2C[C@H]1O`, the IC95 in [6] was 50 nM. The molecule further gave an IC50 in series [5] of 0.13 nM.
For `CC(C)(C)NC(=O)[C@@H]1CN(Cc2ccccc2S)CCN1C[C@@H](O)C[C@@H](Cc1ccccc1)C(=O)N[C@@H]1c2ccccc2C[C@H]1O`, in that order: 25 nM and 0.54 nM.
